Each structure is given as a SMILES string.

For the first experiment, the system named is PDE4. As to the kind of experiment: Evaluation of PDE4 inhibitory activity, scintillation proximity assay. It is filed as biochemical. To be noted: scintillation proximity assay; class symbols of Evaluation 1; read-out: PDE4 Inhibitory Activity (concentration for the inhibition rate of 50%, IC50), Evaluation 1. Here is the method:
The BDE4 inhibitory activity was measured using scintillation proximity assay (SPA) as follows. First, a test compound dissolved in dimethyl sulfoxide was diluted 1:10 in reaction buffer solution which contained 50 mM of Tris-HCl with pH 7.4, 8.3 mM of MgCl2, 1.7 mM of EGTA, and 3 mg/mL of bovine serum albumin (BSA). Then, 10 μL of the diluted solution was added in a 96-well assay plate. Moreover, 50 μL of PDE4 (enzyme preparation) diluted 1:375 in the reaction buffer solution was added, and then 40 μL of [2,8-^3H]-adenosine-3′,5′-cyclic phosphate triethylammonium salt diluted 1:1000 in the reaction buffer solution was added. The mixture was allowed to stand at room temperature for 120 minutes. Thereafter, […] of RNA binding YSi-SPA beads suspension containing ZnSO4 was added and the mixture was allowed to stand at room temperature for 15 minutes, followed by adsorption of the enzyme reaction product to the beads. After that, the radioactivity was measured using a liquid scintillation counter for a 96-well plate. The mixture without the enzyme preparation added but only the reaction buffer solution added is a blank, and the mixture with the enzyme preparation added and only dimethyl sulfoxide added instead of the test compound is a control.
In addition, the PDE4 inhibitory activity (concentration that inhibits PDE4 activity by 50%=concentration for the inhibition rate of 50% (IC50)) of the test compound was calculated from the inhibition curves based on the inhibition rates for various concentrations of the test compound.
Background: In a scintillation proximity assay essentially only radioactivity close to the scintillant gives light.
As for `Oc1ccc(-c2nccs2)c2oc(N3CC4CCCC(C3)N4)nc12` [Example 80, 2-(3,9-Diazabicyclo[3.3.1]nonan-3-yl)-7-(thiazol-2-yl)benzo[d]oxazol-4-ol], the IC50 was less than 100 nM.

In the case of `Cc1ccc(-c2nccs2)c2oc(N3CC4CCCC(C3)N4)nc12` [Example 27, 2-(3,9-Diazabicyclo[3.3.1]nonan-3-yl)-4-methyl-7-(thiazol-2-yl)benzo[d]oxazole], the IC50 is less than 100 nM.

Regarding `CC(=O)N(C)c1cc(-c2nccs2)c2oc(N3CC4CCC(C3)N4)nc2c1` [Example 101, N-(2-(3,8-diazabicyclo[3.2.1]octan-3-yl)-7-(thiazol-2-yl)benzo[d]oxazol-5-yl)-N-methylacetamide], the IC50 is less than 100 nM.

As for `CCOC(=O)c1cc(-n2cccn2)c2oc(N3CC4CCCC(C3)N4)nc2c1` [Example 93, Ethyl 2-(3,9-diazabicyclo[3.3.1]nonan-3-yl)-7-(1H-pyrazol-1-yl)benzo[d]oxazole-5-carboxylate], the IC50 was in the range of 100 to 1000 nM.

Regarding `COC(c1ccc(-c2nccs2)c2oc(N3CC4CC(C3)N4)nc12)C(F)(F)F` (centres unmarked) [Example 123, 2-(3,6-Diazabicyclo[3.1.1]heptan-3-yl)-7-(thiazol-2-yl)-4-(2,2,2-trifluoro-1-methoxyethyl)benzo[d]oxazole], the IC50 is less than 100 nM.

Regarding `CNC(=O)c1cc(-c2nccs2)c2oc(N3CC4CCC(C3)N4)nc2c1` [Example 100, 2-(3,8-Diazabicyclo[3.2.1]octan-3-yl)-N-methyl-7-(thiazol-2-yl)benzo[d]oxazole-5-carboxamide], the IC50 was less than 100 nM.

Take `COC(C)c1cc(-c2nccs2)c2oc(N3CC4CC(C3)N4)nc2c1` (centres unmarked) [Example 111, 2-(3,6-Diazabicyclo[3.1.1]heptan-3-yl)-5-(1-methoxyethyl)-7-(thiazol-2-yl)benzo[d]oxazole]: the IC50 was less than 100 nM.

For the compound `O=C(c1cc(-c2nccs2)c2oc(N3CC4CCC(C3)N4)nc2c1)N1CCCCC1` [Example 96, (2-(3,8-Diazabicyclo[3.2.1]octan-3-yl)-7-(thiazol-2-yl)benzo[d]oxazol-5-yl)(piperidin-1-yl)methanone], the IC50 was less than 100 nM.

For the compound `CC(C)c1cc(-c2nccs2)c2oc(N3CC4CC(C3)N4)nc2c1` [Example 22, 2-(3,6-Diazabicyclo[3.1.1]heptan-3-yl)-5-isopropyl-7-(thiazol-2-yl)benzo[d]oxazole], the IC50 is less than 100 nM.

Turning to `COC(C)(c1cc(-c2nccs2)c2oc(N3CC4CCCC(C3)N4)nc2c1)C(F)(F)F` (centres unmarked) [Example 162], the IC50 was less than 100 nM.

On to `CC(=O)OC(c1cc(-c2nccs2)c2oc(N3CC4CCC(C3)N4)nc2c1)C(F)(F)F` (centres unmarked) [Example 141, 1-(2-(3,8-Diazabicyclo[3.2.1]octan-3-yl)-7-(thiazol-2-yl)benzo[d]oxazol-5-yl)-2,2,2-trifluoroethyl acetate], for which the IC50 was less than 100 nM.

On to `COc1ccc(-c2nccs2)c2oc(N3CC4CCCC(C3)N4)nc12` [Example 77, 2-(3,9-Diazabicyclo[3.3.1]nonan-3-yl)-4-methoxy-7-(thiazol-2-yl)benzo[d]oxazole], for which the IC50 was less than 100 nM.

On to `CC(C)(O)c1cc(-c2nccs2)c2oc(N3CC4CC(C3)N4)nc2c1C(F)(F)F` [Example 178, 2-(2-(3,6-Diazabicyclo[3.1.1]heptan-3-yl)-7-(thiazol-2-yl)-4-(trifluoromethyl)benzo[d]oxazol-5-yl)propan-2-ol], for which the IC50 was less than 100 nM.

On to `FC(F)(F)c1c(Cl)cc(-n2cccn2)c2oc(N3CC4COCC(C3)N4)nc12` [Example 18, 7-(5-Chloro-7-(1H-pyrazol-1-yl)-4-(trifluoromethyl)benzo[d]oxazol-2-yl)-3-oxa-7,9-diazabicyclo[3.3.1]nonane], for which the IC50 was 100 to 1000 nM.

Consider `CC(C)Oc1cc(-c2nccs2)c2oc(N3CC4CCC(C3)N4)nc2c1` [Example 68, 2-(3,8-Diazabicyclo[3.2.1]octan-3-yl)-5-isopropoxy-7-(thiazol-2-yl)benzo[d]oxazole], for which the IC50 is less than 100 nM.

The same experiment, now with this note: scintillation proximity assay; read-out: PDE4 Inhibitory Activity (Evaluation 1; concentration for the inhibition rate of 50%).
With `CC(C)(O)COc1ccc(-c2nccs2)c2oc(N3CC4CCC(C3)N4)nc12` [Example 264, 1-((2-(3,8-Diazabicyclo[3.2.1]octan-3-yl)-7-(thiazol-2-yl)benzo[d]oxazol-4-yl)oxy)-2-methylpropan-2-ol], the IC50 is less than 100 nM.

Turning to `O=C(O)c1cc(-c2nccs2)c2oc(N3CC4CCC(C3)N4)nc2c1OC(F)(F)F` [Example 189, 2-(3,8-Diazabicyclo[3.2.1]octan-3-yl)-7-(thiazol-2-yl)-4-(trifluoromethoxy)benzo[d]oxazole-5-carboxylic acid], the IC50 lay in the range of 100 to 1000 nM.

Turning to `OC(c1cc(-c2nccs2)c2oc(N3CC4CC(C3)N4)nc2c1OC(F)(F)F)C(F)F` (centres unmarked) [Example 207, 1-(2-(3,6-Diazabicyclo[3.1.1]heptan-3-yl)-7-(thiazol-2-yl)-4-(trifluoromethoxy)benzo[d]oxazol-5-yl)-2,2-difluoroethan-1-ol], the IC50 was less than 100 nM.

For `CC(O)c1cc(-c2nccs2)c2oc(N3CC4CC(C3)N4)nc2c1C(F)(F)F` (centres unmarked) [Example 182, 1-(2-(3,6-Diazabicyclo[3.1.1]heptan-3-yl)-7-(thiazol-2-yl)-4-(trifluoromethyl)benzo[d]oxazol-5-yl)ethan-1-ol], the IC50 is less than 100 nM.

As for `COC(C)c1cc(-c2nccs2)c2oc(N3CC4CC(C3)N4)nc2c1C(F)(F)F` (centres unmarked) [Example 185, 2-(3,6-Diazabicyclo[3.1.1]heptan-3-yl)-5-(1-methoxyethyl)-7-(thiazol-2-yl)-4-(trifluoromethyl)benzo[d]oxazole], the IC50 is less than 100 nM.

As to `OC(c1cc(-c2nccs2)c2oc(N3CC4CCC(C3)N4)nc2c1C(F)(F)F)C(F)F` (centres unmarked) [Example 183, 1-(2-(3,8-Diazabicyclo[3.2.1]octan-3-yl)-7-(thiazol-2-yl)-4-(trifluoromethyl)benzo[d]oxazol-5-yl)-2,2-difluoroethan-1-ol], the IC50 is less than 100 nM.

With `COC(C)(c1cc(-c2nccs2)c2oc(N3CC4CC(C3)N4)nc2c1OC(F)(F)F)C(F)(F)F` (centres unmarked) [Example 214, 2-(3,6-Diazabicyclo[3.1.1]heptan-3-yl)-7-(thiazol-2-yl)-5-(1,1,1-trifluoro-2-methoxypropan-2-yl)-4-(trifluoromethoxy)benzo[d]oxazole], the IC50 was less than 100 nM.

With `CC(O)c1cc(-c2nccs2)c2oc(N3CC4CCC(C3)N4O)nc2c1C(F)(F)F` (centres unmarked) [Example 384, 3-(5-(1-Hydroxyethyl)-7-(thiazol-2-yl)-4-(trifluoromethyl)benzo[d]oxazol-2-yl)-3,8-diazabicyclo[3.2.1]octan-8-ol], the IC50 is more than 1000 nM.

For `CSc1ccc(-c2nccs2)c2oc(N3CC4CC(C3)N4)nc12` [Example 345, 2-(3,6-Diazabicyclo[3.1.1]heptan-3-yl)-4-(methylthio)-7-(thiazol-2-yl)benzo[d]oxazole], the IC50 was less than 100 nM.

Consider `CC(C)(O)c1cc(-c2cscn2)c2oc(N3CC4CCC(C3)N4)nc2c1OC(F)(F)F` [Example 291, 2-(2-(3,8-Diazabicyclo[3.2.1]octan-3-yl)-7-(thiazol-4-yl)-4-(trifluoromethoxy)benzo[d]oxazol-5-yl)propan-2-ol], for which the IC50 is less than 100 nM.

For the compound `N#CC1CC(Oc2ccc(-c3nccs3)c3oc(N4CC5CC(C4)N5)nc23)C1` (centres unmarked) [Example 266, 3-((2-(3,6-Diazabicyclo[3.1.1]heptan-3-yl)-7-(thiazol-2-yl)benzo[d]oxazol-4-yl)oxy)cyclobutane-1-carbonitrile], the IC50 is less than 100 nM.

Regarding `CC(C)(O)COC(c1ccc(-c2nccs2)c2oc(N3CC4CC(C3)N4)nc12)C(F)(F)F` (centres unmarked) [Example 255], the IC50 is less than 100 nM.

`O=C(NO)c1ccc(-c2nccs2)c2oc(N3CC4CC(C3)N4)nc12` [Example 367, 2-(3,6-Diazabicyclo[3.1.1]heptan-3-yl)-N-hydroxy-7-(thiazol-2-yl)benzo[d]oxazole-4-carboxamide]: the IC50 was less than 100 nM.

Take `CC(C)(O)c1cc(-c2nccs2)c2oc(N3CC4CCC(C3)N4O)nc2c1OC(F)(F)F` [Example 368, 3-(5-(2-Hydroxypropan-2-yl)-7-(thiazol-2-yl)-4-(trifluoromethoxy)benzo[d]oxazol-2-yl)-3,8-diazabicyclo[3.2.1]octan-8-ol]: the IC50 lay within 100 to 1000 nM.

Regarding `COC(C)(c1cc(-c2nccs2)c2oc(N3CC4CCC(C3)N4)nc2c1OC(F)(F)F)C(F)(F)F` (centres unmarked) [Example 215, 2-(3,8-Diazabicyclo[3.2.1]octan-3-yl)-7-(thiazol-2-yl)-5-(1,1,1-trifluoro-2-methoxypropan-2-yl)-4-(trifluoromethoxy)benzo[d]oxazole], the IC50 was less than 100 nM.

As to `CC(O)COC(c1ccc(-c2nccs2)c2oc(N3CC4CC(C3)N4)nc12)C(F)(F)F` (centres unmarked) [Example 261, 1-(1-(2-(3,6-Diazabicyclo[3.1.1]heptan-3-yl)-7-(thiazol-2-yl)benzo[d]oxazol-4-yl)-2,2,2-trifluoroethoxy)propan-2-ol], the IC50 is less than 100 nM.

Take `COC(=O)c1ccc(-c2nccs2)c2oc(N3CC4CCC(C3)N4)nc12` [Example 237, Methyl 2-(3,8-diazabicyclo[3.2.1]octan-3-yl)-7-(thiazol-2-yl)benzo[d]oxazole-4-carboxylate]: the IC50 was less than 100 nM.

The record behind these values is US12239643B2, “Therapeutic agent for inflammatory diseases, autoimmune diseases, fibrotic diseases, and cancer diseases” (MEIJI SEIKA PHARMA CO., LTD., priority 2018, dated 2025).
